Laboratory results reported in ChEMBL document CHEMBL5335868, “Exploring Scaffold Hopping for Novel 2-(Quinolin-4-yloxy)acetamides with Enhanced Antimycobacterial Activity” (ACS Med Chem Lett, 2024).
≈ marks a conversion by molar mass, not a printed value.

Columns and labels:
Format in all cases: functional
[1] = tested on: Mycobacterium tuberculosis; experiment: Antibacterial activity against multi-drug resistant Mycobacterium tuberculosis clinical isolate PT2 assessed as bacterial growth inhibition measured after 7 days by resazurin based assay; settings: 168 h, time 7 day
[2] = tested on: Mycobacterium tuberculosis; experiment: Antibacterial activity against multi-drug resistant Mycobacterium tuberculosis clinical isolate PT12 assessed as bacterial growth inhibition measured after 7 days by resazurin based assay; settings: 168 h, time 7 day
[3] = tested on: Mycobacterium tuberculosis; experiment: Antibacterial activity against multi-drug resistant Mycobacterium tuberculosis clinical isolate PT20 assessed as bacterial growth inhibition measured after 7 days by resazurin based assay; settings: 168 h, time 7 day
[4] = tested on: Mycobacterium tuberculosis; experiment: Antibacterial activity against qcrB-resistant Mycobacterium tuberculosis harbouring T313A mutant assessed as bacterial growth inhibition measured after 7 days by resazurin based assay; settings: time 7 day

Structure (SMILES) | MIC [1] [µM] | MIC [2] [µM] | MIC [3] [µM] | MIC [4] [µM]
COc1ccc2nc(C)cc(OCC(=O)Nc3ccc(N4CCC(c5ccccc5)CC4)cc3)c2c1 | < 0.02 | < 0.02 | < 0.02 | >10.4
Cc1cc(OCC(=O)Nc2ccc(N3CCC(c4ccccc4)CC3)cc2)c2cc(Br)ccc2n1 | < 0.02 | < 0.02 | < 0.02 | >9.4
CO[C@H]1/C=C/O[C@@]2(C)Oc3c(C)c(O)c4c(O)c(c(/C=N/N5CCN(C)CC5)c(O)c4c3C2=O)NC(=O)/C(C)=C\C=C\[C@H](C)[C@H](O)[C@@H](C)[C@@H](O)[C@@H](C)[C@H](OC(C)=O)[C@@H]1C [RIFAMPIN] | > 48.6 | > 48.6 | > 48.6 | –
COc1ccc2nc(C)cc(OCC(=O)Nc3ccc(N4CCC(c5ccc(OC(F)(F)F)cc5)CC4)cc3)c2c1 | < 0.02 | < 0.02 | < 0.02 | >8.8
Cc1cc(OCC(=O)Nc2ccc(N3CCC(c4ccccc4)CC3)cc2)c2cc(Cl)ccc2n1 | < 0.02 | < 0.02 | < 0.02 | >10.3
NNC(=O)c1ccncc1 [ISONIAZID] | – | 146 (≈ 20 µg/mL) | – | 2.3 (≈ 0.315 µg/mL)
